This is an account of results in patent US9241947B2, “Boronic acid derivatives and therapeutic uses thereof” (priority 2013, dated 2016).

A word on the MIC: it is the lowest concentration that inhibits growth of the organism. As usually defined, the Ki is a dissociation constant, usually derived from enzyme kinetics or from competition with a known ligand. In general, IC50 refers to the midpoint of a concentration-inhibition curve. Read a low IC50 as higher potency.

The test system of test [1] is KP1081 (NDM-1, TEM-1, SHV-11, CMY-6, CTX-M-15). As to the kind of experiment: Carbapenem potentiation against clinical isolate. The note with it: Klebsiella pneumoniae, strain KP1081. The format is cell-based. The text has this: (§1) The results are present in Table 6.
(§2) The results are present in Table 7.

Test [2] has as its system ECM6711 pUCP24-VIM-1. The test is classed as cell-based, E. coli. The conditions noted are these: Compound 1 at fixed 4 μg/ml or 8 μg/ml; VIM-1 producing strain.
Test [3] has as its target T1, NDM-1 (Klebsiella pneumoniae, UniProt C7C422). The test is classed as biochemical.
The target of test [4] is T2, VIM-1 (Pseudomonas aeruginosa, UniProt A0A0F7KYQ8).
T2 construct: made in house; host or cells: ECM6711 strain carrying pUCP24-VIM-1 plasmid (culture supernatant, not purified)
The format is biochemical. The conditions noted are these: cleavage of nitrocefin (200 uM) by VIM-1 supernatant.

Test [5] concerns ECM6703 pUCP24-NDM-1. The format is cell-based, E. coli. The conditions noted are these: Compound 1 at fixed 4 μg/ml or 8 μg/ml; NDM-1 producing strain.
The subject of test [6] is clinical isolates expressing class A, B and D carbapenemases. As to the kind of experiment: Carbapenem potentiation against panel of clinical isolates. The note with it: Compound 1 at fixed 5 μg/ml; biapenem, doripenem, imipenem, meropenem; all the strains. The format is cell-based.
Source text: as §1

For test [7], the target named is T1, NDM-1. The test is classed as biochemical. The note with it: read-out: Ki NDM-1, Imipenem.
Test [8] concerns the target OXA-48 (Klebsiella pneumoniae, UniProt Q6XEC0). As to the kind of experiment: Inhibition of purified class D carbapenemase, biapenem substrate. The format is biochemical. The conditions noted are these: purified enzyme.
The target of test [9] is SHV-12 (Klebsiella pneumoniae, UniProt P0AD64, E235K/G234S/L31Q). As to the kind of experiment: Inhibition of nitrocefin cleavage by purified enzyme. The test is classed as biochemical. The conditions noted are these: nitrocefin substrate; read-out: Ki (SHV-12, NCF). On the procedure: Purified enzymes were mixed with various concentrations of inhibitors in reaction buffer and incubated for 10 min at room temperature. Nitrocefin was added and substrate cleavage profiles were recorded at 490 nm every 10 sec for 10 min.

Test [10] deals with KP1054 (VIM-1, SHV-11). Nature of the test: Carbapenem potentiation against clinical isolate. The format is cell-based. The conditions noted are these: Klebsiella pneumoniae, strain KP1054.
Source text: as §1, §2

In test [11] the test system is KP1004 (KPC-2, TEM-1, SHV-11). Nature of the test: Carbapenem potentiation against clinical isolate. The format is cell-based. The note with it: Klebsiella pneumoniae, strain KP1004.
Source text: as §1, §2

Test [12] deals with KP1086 (TEM, SHV, CTX-M-15, OXA-48). As to the kind of experiment: Carbapenem potentiation against clinical isolate. The test is classed as cell-based. The conditions noted are these: Klebsiella pneumoniae, strain KP1086.
Source text: as §1, §2

Test [13] deals with KP1087 (KPC-2, CTX-M-15, SHV-11, TEM-1). As to the kind of experiment: Carbapenem potentiation against clinical isolate. The test is classed as cell-based. The note with it: Klebsiella pneumoniae, strain KP1087.
Source text: as §1, §2

For test [14], the system named is KP1074 (KPC-3, SHV-11, TEM). As to the kind of experiment: Carbapenem potentiation against clinical isolate. The test is classed as cell-based. The note with it: Klebsiella pneumoniae, strain KP1074.
Source text: as §1, §2

Test [15] concerns KP1064 (KPC-2, SHV-11, TEM-1). As to the kind of experiment: Carbapenem potentiation against clinical isolate. The format is cell-based. The conditions noted are these: Klebsiella pneumoniae, strain KP1064.
Source text: as §1, §2

For test [16], the system named is KP1014 (VIM-1). Nature of the test: Carbapenem potentiation against clinical isolate. The test is classed as cell-based. The note with it: Klebsiella pneumoniae, strain KP1014.
Source text: as §1, §2

Test [17] has as its system KP1084 (KPC-3, SHV-11, TEM-1). Nature of the test: Carbapenem potentiation against clinical isolate. The test is classed as cell-based. The conditions noted are these: Klebsiella pneumoniae, strain KP1084.
Source text: as §1, §2

Test [18] has as its system AB1144 (NDM-1). As to the kind of experiment: Carbapenem potentiation against clinical isolate. The test is classed as cell-based. The note with it: Acinetobacter baumannii.
Source text: as §1, §2

In test [19] the test system is EC1064 (NDM-1, CMY-6, CTX-M-15). Nature of the test: Carbapenem potentiation against clinical isolate. The note with it: Escherichia coli, strain EC1064. The test is classed as cell-based.
Source text: as §1, §2

The mark [20] stands for this setting: cleavage of biapenem (100 uM) by NDM-1, read-out: Ki, Biapenem.
[21] abbreviates: cleavage of tebipenem (100 uM) by NDM-1, read-out: Ki, Tebipenem.

Where two headings read alike, the source gives them in different places.

T1 sequence (C7C422 29-270 limits assumed): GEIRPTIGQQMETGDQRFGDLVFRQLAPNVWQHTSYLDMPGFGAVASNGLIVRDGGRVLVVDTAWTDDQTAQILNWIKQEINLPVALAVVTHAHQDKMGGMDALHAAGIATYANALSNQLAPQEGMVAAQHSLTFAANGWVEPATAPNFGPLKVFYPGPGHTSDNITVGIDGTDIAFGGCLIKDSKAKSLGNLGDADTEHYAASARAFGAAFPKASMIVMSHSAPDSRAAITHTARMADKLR
SHV-12, sequence (P0AD64 22-286 L31Q/G234S/E235K): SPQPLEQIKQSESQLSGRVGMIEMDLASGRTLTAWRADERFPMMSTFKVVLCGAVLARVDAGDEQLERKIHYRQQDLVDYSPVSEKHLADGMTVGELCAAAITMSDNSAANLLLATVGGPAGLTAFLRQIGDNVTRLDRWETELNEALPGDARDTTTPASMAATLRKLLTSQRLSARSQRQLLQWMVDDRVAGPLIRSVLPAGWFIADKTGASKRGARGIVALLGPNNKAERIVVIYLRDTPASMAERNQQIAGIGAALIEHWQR
OXA-48, sequence (Q6XEC0 23-265 limits assumed): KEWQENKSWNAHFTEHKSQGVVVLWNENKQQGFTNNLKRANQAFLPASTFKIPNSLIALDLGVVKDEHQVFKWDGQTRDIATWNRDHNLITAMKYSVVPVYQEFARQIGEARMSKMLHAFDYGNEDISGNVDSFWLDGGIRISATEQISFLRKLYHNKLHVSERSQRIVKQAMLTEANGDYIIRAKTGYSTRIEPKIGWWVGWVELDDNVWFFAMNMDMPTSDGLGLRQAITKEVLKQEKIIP

Turning to `C[C@@H](O)[C@H]1C(=O)N2C(C(=O)[O-])=C(SC3Cn4cnc[n+]4C3)[C@H](C)[C@H]12` (stereo partly drawn) [Biapenem], in [1] (read-out: Biapenem MIC Alone), the MIC is > 10 µg/mL.

`O=C(O)c1cccc2c1OB(O)[C@@H](Sc1nncs1)C2` [Compound 1, (R)-3-(1,3,4-thiadiazol-2-ylthio)-2-hydroxy-3,4-dihydro-2H-benzo[e][1,2]oxaborinine-8-carboxylic acid]: the “imipenem MIC in the presence of Compound 1” value in [2] and in [5] was “decreased to the level of the strain containing empty vector” in each case. Moreover, the Ki was 0.01 to 0.1 µM in [3] (setting [20]); > 0.1 µM in test [3] (setting [21]); 0.01 to 0.1 µM in test [3] (read-out: Ki, Imipenem); 0.01 to 0.1 µM in [7]. The IC50 in test [4] is < 1 µM. In test [6], the “carbapenem MIC in the presence of Compound 1” value is given as “significantly reduced”.

For `O=C(O)c1cccc2c1OB(O)[C@@H](Sc1nnc[nH]1)C2` [Compound 2, (R)-3-(4H-1,2,4-triazol-3-ylthio)-2-hydroxy-3,4-dihydro-2H-benzo[e][1,2]oxaborinine-8-carboxylic acid], the Ki was 0.01 to 0.1 µM in [8]; 0.01 to 0.1 µM in [3] (setting [21]); < 0.01 µM in test [3] (read-out: Ki, Imipenem); < 0.1 µM in test [9]; < 0.01 µM in test [7]. Besides, in test [4], the IC50 is < 1 µM.

For the molecule `NC(=O)CS[C@H]1Cc2cccc(C(=O)O)c2OB1O` [Compound 3, (R)-3-(2-amino-2-oxoethylthio)-2-hydroxy-3,4-dihydro-2H-benzo[e][1,2]oxaborinine-8-carboxylic acid], the Ki in test [8] was < 0.01 µM; in test [3] (setting [20]) it was > 0.1 µM; in test [3] (setting [21]), > 0.1 µM; in [3] (read-out: Ki, Imipenem), > 0.1 µM; in test [9] it was 0.1 to 1 µM; in test [7], > 0.1 µM.

For `Nc1nnc(S[C@H]2Cc3cccc(C(=O)O)c3OB2O)s1` [Compound 4, (R)-3-(5-amino-1,3,4-thiadiazol-2-ylthio)-2-hydroxy-3,4-dihydro-2H-benzo[e][1,2]oxaborinine-8-carboxylic acid], the Ki in [8] is < 0.01 µM; in test [3] (setting [20]), < 0.01 µM; in test [3] (setting [21]) it was < 0.01 µM; in test [3] (read-out: Ki, Imipenem), < 0.01 µM; in test [9], < 0.1 µM; in test [7], < 0.01 µM. The IC50 in [4] is < 1 µM.

As to `Cn1nnnc1S[C@H]1Cc2cccc(C(=O)O)c2OB1O` [Compound 5, (R)-2-hydroxy-3-(1-1H-tetrazol-5-ylthio)-3,4-dihydro-2H-benzo[e][1,2]oxaborinine-8-carboxylic acid], the Ki in test [3] (read-out: Ki, Imipenem) is 0.01 to 0.1 µM; in test [7], 0.01 to 0.1 µM. In test [4], the IC50 is ≥ 1 µM.

Take `O=C(O)c1cccc2c1OB(O)[C@@H](Sc1ccccc1)C2` [Compound 6, (R)-2-hydroxy-3-(phenylthio)-3,4-dihydro-2H-benzo[e][1,2]oxaborinine-8-carboxylic acid]: the Ki in [3] (read-out: Ki, Imipenem) was < 0.01 µM; in test [7] it was < 0.01 µM. Besides, the IC50 in [4] was < 1 µM.

Turning to `CC(=O)Nc1nnc(S[C@H]2Cc3cccc(C(=O)O)c3OB2O)s1` [Compound 7, (R)-3-(5-acetamido-1,3,4-thiadiazol-2-ylthio)-2-hydroxy-3,4-dihydro-2H-benzo[e][1,2]oxaborinine-8-carboxylic acid], the Ki was < 0.01 µM in [8]; 0.01 to 0.1 µM in test [3] (read-out: Ki, Imipenem); < 0.1 µM in test [9]; 0.01 to 0.1 µM in [7]. For the same molecule, in test [4], the IC50 is < 1 µM.

For `O=C(O)c1cccc2c1OB(O)[C@@H](Sc1cccnc1)C2` [Compound 8, (R)-2-hydroxy-3-(pyridin-3-ylthio)-3,4-dihydro-2H-benzo[e][1,2]oxaborinine-8-carboxylic acid], the Ki in [3] (read-out: Ki, Imipenem) was > 0.1 µM; in test [7] it was > 0.1 µM. Besides, the IC50 in test [4] is < 1 µM.

Consider `NC(=O)CCS[C@H]1Cc2cccc(C(=O)O)c2OB1O` [Compound 9, (R)-3-(3-amino-3-oxopropylthio)-2-hydroxy-3,4-dihydro-2H-benzo[e][1,2]oxaborinine-8-carboxylic acid], for which the inhibition constant (Ki) in test [8] was 0.01 to 0.1 µM; in [3] (read-out: Ki, Imipenem), > 0.1 µM; in test [9], 0.1 to 1 µM; in [7], > 0.1 µM. For the same molecule, the IC50 in test [4] was < 1 µM.

For `CC(=N)S[C@H]1Cc2cccc(C(=O)O)c2OB1O` [Compound 10, (R)-2-hydroxy-3-(1-iminoethylthio)-3,4-dihydro-2H-benzo[e][1,2]oxaborinine-8-carboxylic acid], the Ki fell in the range of 0.01 to 0.1 µM in [3] (read-out: Ki, Imipenem) and 0.01 to 0.1 µM in [7]. Moreover, the IC50 in test [4] was ≥ 1 µM.

As to `O=C(O)c1cccc2c1OB(O)[C@@H](Sc1nccs1)C2` [Compound 11, (R)-2-hydroxy-3-(thiazol-2-ylthio)-3,4-dihydro-2H-benzo[e][1,2]oxaborinine-8-carboxylic acid], the Ki is > 0.1 µM in test [3] (read-out: Ki, Imipenem); < 0.1 µM in test [9]; > 0.1 µM in [7]. Moreover, the IC50 in [4] is ≥ 1 µM.

Regarding `O=C(O)c1cccc2c1OB(O)[C@@H](Sc1c[nH]nn1)C2` [Compound 12, (R)-3-(1H-1,2,3-triazol-4-ylthio)-2-hydroxy-3,4-dihydro-2H-benzo[e][1,2]oxaborinine-8-carboxylic acid], the Ki in test [3] (read-out: Ki, Imipenem) lay in the range of 0.01 to 0.1 µM; in test [7], 0.01 to 0.1 µM. For the same molecule, the IC50 in test [4] was < 1 µM.

`O=C(O)c1cccc2c1OB(O)[C@@H](OCc1ccccc1)C2` [Compound 13, (R)-3-(benzyloxy)-2-hydroxy-3,4-dihydro-2H-benzo[e][1,2]oxaborinine-8-carboxylic acid]: the Ki in [3] (read-out: Ki, Imipenem) lay within 0.01 to 0.1 µM; in test [7], 0.01 to 0.1 µM. Further, in test [4], the IC50 is < 1 µM.

On to `Nn1cnnc1S[C@H]1Cc2cccc(C(=O)O)c2OB1O` [Compound 14, (R)-3-(4-amino-4H-1,2,4-triazol-3-ylthio)-2-hydroxy-3,4-dihydro-2H-benzo[e][1,2]oxaborinine-8-carboxylic acid], for which, in [4], the half-maximal inhibitory concentration (IC50) is < 1 µM. In [9], the Ki is < 0.1 µM.

In the case of `C[C@@H](O)[C@H]1C(=O)N2C(C(=O)O)=C(SCCN=CN)C[C@H]12` [Imipenem], the minimum inhibitory concentration (MIC) was 1 to 10 µg/mL in [10] (read-out: Imipenem MIC Alone); > 10 µg/mL in test [11] (read-out: Imipenem MIC Alone); > 10 µg/mL in test [12] (read-out: Imipenem MIC Alone); 1 to 10 µg/mL in test [13] (read-out: Imipenem MIC Alone); > 10 µg/mL in test [14] (read-out: Imipenem MIC Alone); > 10 µg/mL in test [15] (read-out: Imipenem MIC Alone). Moreover, the minimal inhibitory concentration (MIC) in [16] (read-out: Imipenem MIC Alone), in test [1] (read-out: Imipenem MIC Alone), in [17] (read-out: Imipenem MIC Alone), in test [18] (read-out: Imipenem MIC Alone) and in [19] (read-out: Imipenem MIC Alone) was > 10 µg/mL in each case.

Consider `C[C@@H](O)[C@H]1C(=O)N2C(C(=O)O)=C(S[C@@H]3CN[C@H](C(=O)N(C)C)C3)[C@H](C)[C@H]12` [Meropenem], for which the minimal inhibitory concentration (MIC) in test [10] (read-out: Meropenem MIC Alone) was > 10 µg/mL; in test [11] (read-out: Meropenem MIC Alone), 1 to 10 µg/mL; in test [12] (read-out: Meropenem MIC Alone), > 10 µg/mL; in test [13] (read-out: Meropenem MIC Alone), > 10 µg/mL; in [14] (read-out: Meropenem MIC Alone), > 10 µg/mL; in test [15] (read-out: Meropenem MIC Alone), > 10 µg/mL. Besides, the MIC in test [16] (read-out: Meropenem MIC Alone) is 1 to 10 µg/mL; in test [1] (read-out: Meropenem MIC Alone) it was > 10 µg/mL; in test [17] (read-out: Meropenem MIC Alone) it was > 10 µg/mL; in [18] (strain AB1144, read-out: Meropenem MIC Alone), > 10 µg/mL; in test [19] (read-out: Meropenem MIC Alone), > 10 µg/mL.
